{"source": "patent US9145351B2", "about": "“Azole derivatives, methods for producing the same, intermediate thereof, agro-horticultural agents” (KUREHA CORPORATION, priority 2009, dated 2015)", "key": {"Septoria tritici [1]": {"system": "Septoria tritici", "test": "Assay for fungicidal effect on Septoria tritici, plate medium 0.02 mg/L (Experimental Example 7)", "assay_type": "cell-based", "excerpt": "In this Experimental Example, the fungicidal effects of the inventive compounds on a phytopathogenic fungi, Septoria tritici were examined and compared to the Comparative Compound (3) described in Patent Literature 1 (JPA01-93574) by the methods described below. […] The subject microorganism previously cultured on a plate medium was cut out using a cork borer whose diameter was 4 mm, and inoculated to the test compound-containing plate medium described above. […] The growth degree of the microorganism on the test compound-containing plate medium thus observed was compared with the growth degree of the microorganism in the untreated group, and % mycelial growth inhibition was calculated by the following equation. R=100(dc−dt)/dc wherein R=% mycelial extension inhibition, dc=flora diameter in untreated plate, dt=flora diameter in treated plate. The results obtained as described above were evaluated as one of the 5 grades according to the following criteria. <Growth Inhibition Grade> […]"}, "Puccinia recondita [2]": {"system": "Puccinia recondita", "test": "Efficacy test against wheat brown rust, 2 mg/L (Experimental Example 8)", "assay_type": "in vivo", "settings": "sprayed at 1,000 L/ha, concentration printed 0.02 mg/L, 9 to 14 days after inoculation", "method": "Onto a wheat plant (variety: […] The sprayed leaves were air-dried, and inoculated with spore suspension of Puccinia recondita (adjusted at 200 spores/vision, […] was added at 60 ppm) by spraying, and kept at 25 degrees C. and a high humidity for 48 hours. Thereafter, the plant was kept in a greenhouse. Nine to 14 days after inoculation, the wheat brown rust lesion degree was investigated, and the protective value was calculated by the following equation. Protective value (%)=(1-lesion degree in sprayed plot/lesion degree in unsprayed plot)×100"}, "Septoria tritici [3]": {"system": "Septoria tritici", "test": "Microplate test of biocidal effect on wheat Septoria blotch (Experimental Example 4)", "assay_type": "cell-based", "settings": "Zymoseptoria tritici, 240 h; % mycelium growth inhibition, absorbance 550 nm, 20 degrees C. for about 10 days; read-out: activity level (EC80)", "method": "A spore suspension of wheat Septoria blotch (Septoria tritici) (spore concentration: 1×10^6 cells/ml) was prepared, and subjected to 100-fold dilution with a PD medium. A flat 96-well microplate was provided and 1 microliter of the test compound solution formed by dissolution in dimethyl sulfoxide (DMSO) at a concentration 100 times the test concentration was dispensed to the microplate, and then 100 microliter of the medium containing the spore was added and stirred thoroughly. […] R=100×(dc−dt)/dc: R: % mycelium growth inhibition dc: Absorbance of non-treatment zone dt: Absorbance of treatment zone"}, "Septoria tritici [4]": {"system": "Septoria tritici", "test": "Assay for fungicidal effect on Septoria tritici, plate medium 1.25 mg/L (Experimental Example 9)", "assay_type": "cell-based", "settings": "Zymoseptoria tritici, read-out: growth inhibition grade", "method": "Each inventive compound was dissolved in 2 ml of dimethyl sulfoxide. 0.6 ml of this solution was added to 60 nil of a PDA medium (potato dextrose agar medium) at about 60 degrees C., which was mixed thoroughly in a 100-ml conical flask, and poured into a dish, where it was solidified, thereby obtaining a plate medium containing the inventive compound at 50 mg/L and 5 mg/L. On the other hand, a subject microorganism previously cultured on a plate medium was cut out using a cork borer whose diameter was 4 mm, and inoculated to the test compound-containing plate medium described above. […] The growth degree of the microorganism on the test compound-containing plate medium thus observed was compared with the growth degree of the microorganism in the untreated group, and % mycelial growth inhibition was calculated by the following equation. R=100(dc−dt)/dc wherein R=% mycelial extension inhibition, dc=flora diameter in untreated plate, dt=flora diameter in treated plate. The results obtained as described above were evaluated as one of the 5 grades according to the following criteria. […] In this Experimental Example, the fungicidal effects of the inventive compounds on Septoria tritici were examined by the methods described in the Experimental Example 5. In this Experimental Example, the inventive compounds were diluted at 1.25 mg/L."}, "Puccinia recondita [5]": {"system": "Puccinia recondita", "test": "Efficacy test against wheat brown rust, 1 mg/L (Experimental Example 10)", "assay_type": "in vivo", "settings": "1 g/ha (1 mg/L sprayed at 1,000 L/ha)"}}}
{"molecule": "CC1(C)CC[C@@H](Cc2ccc(F)cc2)[C@]1(O)Cn1cncn1", "note": "(racemic) [Compound (3)]", "values": [{"measurement": "grade (growth inhibition grade)", "setting": "Septoria tritici [1]", "value": "2 (% Mycerial growth inhibition of less than 40 to 20% or higher)"}, {"measurement": "degree (wheat brown rust lesion degree)", "setting": "Puccinia recondita [2]", "value": "3 (10% or higher and less than 30%)"}]}
{"molecule": "CC1(C)CC[C@H](Cc2ccc(Cl)cc2)[C@@]1(O)Cn1cncn1", "note": "(racemic) [comparative compound (I), (1RS,5SR)-5-(4-chlorobenzyl)-2,2-dimethyl-1-(1H-1,2,4-triazol-1-ylmethyl)cyclopentanol, reference compound]", "values": [{"measurement": "EC80", "setting": "Septoria tritici [3]", "value": 0.4, "unit": "µg/mL"}, {"measurement": "inhibition at 1.25 µg/mL", "setting": "Septoria tritici [4]", "value": "40 to 60", "unit": "%"}, {"measurement": "lesion degree", "setting": "Puccinia recondita [5]", "value": "3 (10% or higher and less than 30%)"}]}
